Values of other authors as cited in patent publication US7807616B2, “Geranonitrile substitute” (Henkel AG & Co. KGaA, priority 2004, dated 2010).
Where two headings read alike, the source gives them in different places.

How the values were obtained:
[1] = new findings (BASF, 2003); status 2004
[2] = solution heated at 100° C. for two hours

SMILES	class under the EU classification criteria (CMR) [1]	amount of the anhydrous salt that dissolves in 100 g of water (at 60°)	amount of the anhydrous salt that dissolves in 100 g of water (at 100°)	amount of the anhydrous salt that dissolves in 100 g of water (room temperature)	diphosphate produced by hydrolysis [2] [%]	orthophosphate produced by hydrolysis [2]
CC(C)=CCCC(C)=CC#N [geranonitrile, 3,7-dimethyl-2,6-octadienenitrile]	category 3 mutagen (M:3)					
O=P([O-])([O-])OP(=O)([O-])OP(=O)([O-])[O-].[Na+].[Na+].[Na+].[Na+].[Na+] [pentasodium triphosphate]		about 20 g	around 32 g	About 17 g	~15	about 8%
